This is an account of results in patent US5929110A, “Fatty acid analogs and prodrugs” (G. D. Searle & Co., priority 1998, dated 1999).

Where two headings read alike, the source gives them in different places.

Series [1] in a line: biological half-life in rat hepatic S9 preparation. In kind it is in vitro ADME. Conditions: liver s9, rat hepatic S9, approximately 2 mcg/mL, 37° C. The protocol: Various illustrative compounds synthesized in Examples above were tested for biological half-life. Compounds were incubated at a concentration of approximately 2 mcg/mL in a rat liver S9 preparation which was prepared according to standard procedures with minor modifications^1. The reactions were conducted at 37° C. in a water bath and stopped by the addition of ice cold methanol at various times ranging from 0 to 20 minutes. Aliquots of the incubations were analyzed by high performance liquid chromatography (HPLC) for the compound of interest. The analyses were conducted on a Waters HPLC system consisting of a model 510 pump and a Wisp model 712 automatic injector. Waters C18 columns were used to perform the separations. The compounds were detected by UV adsorption. The mobile phases consisted of acetonitrile and sodium phosphate buffer (40 mM, pH 3.5); specific conditions were varied slightly for each compound. Concentrations of each compound were determined with time and the rate of metabolism was determined by analyzing the data using the CSTRIP program^2.
^1 Subcellular Fractionation of Rat Liver. S. Fleischer and M. Kervina in Methods of Enzymology, Vol. XXXI, Biomembranes Part A, S. Fleischer and L. Packer Eds., pp. 6-41 (1974).
^2 A. T. Sedman and J. G. Warner, "CSTRIP. A Fortran IV Computer Program for Obtaining Initial Polyexponential Parameter Estimates.", J. Pharm. Sci. 65, 1006-1010 (1976).

In a further series the test system is HIV-1. In words: inhibition of HIV-1; reduction of cytopathogenic effect in virus-infected Leu-3a-positive CEM cells (MTT assay). In kind it is cell-based, strain HTVL-IIIB. Particulars: Human immunodeficiency virus 1, CCRF-CEM, multiplicity of infection 0.1, MTT read on 7th to 9th day post-infection. The method, then:
Inhibitory activity against HIV-1 was shown by tests involving plating of susceptible human host cells which are syncytium-sensitive with and without virus in microculture plates, adding various concentrations of the test compound, incubating the plates for 7 to 9 days (during which time infected, non-drug treated control cells are largely or totally destroyed by the virus), and then determining the remaining number of viable cells with a colorometric endpoint.
Various illustrative compounds synthesized above were tested for inhibition of HIV-1 in a test which measured reduction of cytopathogenic effect in virus-infected syncytium-sensitive Leu-3a-positive CEM cells grown in tissue culture as follows:
Tissue culture plates were incubated at 37° C. in a humidified, 5% CO2 atmosphere and observed microscopically for toxicity and/or cytopathogenic effect (CPE). At 1 hour prior to infection each test article was prepared from the frozen stock, and a 20 μl volume of each dilution (prepared as a 10× concentration) was added to the appropriate wells of both infected and uninfected cells.
Assays were done in 96-well tissue culture plates. CEM cells were treated with polybrene at a concentration of 2 μg/ml, and an 80 μl volume of cells (1×10^4 cells) was dispensed into each well. A 100 μl volume of each test article dilution (prepared as a 2× concentration) was added to 5 wells of cells, and the cells were incubated at 37° C. for 1 hour. A frozen culture of HIV-1, strain HTVL-IIIB, was diluted in culture medium to a concentration of 5×10^4 TCID50 per ml, and a 20 μl volume (containing 10^3 TCID50 of virus) was added to 3 of the wells for each test article concentration. […] A 20 μl volume of normal culture medium was added to the remaining wells to allow evaluation of cytotoxicity. Each plate contained 6 wells of untreated, uninfected, cell control samples and 6 wells of untreated, infected, virus control samples.
On the 7th to 9th day post-infection, the cells in each well were resuspended and a 100 μl sample of each cell suspension was removed for use in an MTT assay. A 20 μl volume of a 5 mg/ml solution of 3-(4,5-dimethylthiazol-2-yl)-2,5-diphenyltetrazolium bromide (MTT) was added to each 100 μl cell suspension, and the cells were incubated at 37° C. in 5% CO2 for 4 hours. […] A 100 μl volume of a solution of 10% sodium dodecyl sulfate in 0.01N hydrochloric acid was added to each sample, and the samples were incubated overnight. The absorbance at 590 nm was determined for each sample using a Molecular Devices Vmax microplate reader. This assay detects drug-induced suppression of viral CPE, as well as drug cytotoxicity, by measuring the generation of MTT-formazan by surviving cells.

Setting [2] is: 0 to 20 minutes, read-out: Half-life.

Take `CCOC(=O)[C@@H](CCCCNC(=O)OCc1ccccc1Cl)NC(=O)CCCCCCCCCCCOC` [Example 68, N6-[[(2-Chlorophenyl)methoxy]carbonyl]-N2-(12-methoxy-1-oxododecyl)-D-lysine, Ethyl ester]: the half-life in series [1] (setting [2]) came out at 8.54 min. Moreover, in the series on HIV-1, the midpoint of the response, the EC50, lay at 13.1 µM.
On to `COCCCCCCCCCCCC(=O)NCc1ccccc1` [Example 14, 12-Methoxy-N-(phenylmethyl)dodecanamide], for which, in series [1] (setting [2]), the half-life is 2.41 min. It took 3.8 µM to reach a half-maximal effect in the series on HIV-1 (EC50).
The matching figures for `CCCCCCCCCCOCCC(=O)N[C@H](Cc1ccccc1)C(=O)OCC` [Example 56, N-(3-(Decyloxy)-1-oxopropyl]-D-phenylalanine, Ethyl ester]: 1.97 min and > 240 µM.
Regarding `CCOC(=O)c1cccc(NC(=O)CCCCCCCCCCCOC)c1` [Example 17, Ethyl 3-[(12-Methoxy-1-oxododecyl)amino]-benzoate], in series [1] (read-out: Half-life (not detected at initial sampling)), the half-life was < 5 min. The compound also returned an EC50 in the series with HIV-1 of 8.2 µM.
For the compound `CCOC(=O)[C@H](Cc1ccccc1)NC(=O)CCCCCCCCCCCOC` [Example 49, N-(12-Methoxy-1-oxododecyl)-L-phenylalanine, Ethyl ester], in series [1] (setting [2]), the half-life is 1.07 min. For the same compound, the EC50 with HIV-1 was 5.4 µM.
For `COCCCCCCCCCCCC(=O)Nc1cccc(C(=O)O)c1` [Example 18, 3-[(12-Methoxy-1-oxododecyl)amino]benzoic acid], in that order: 8.46 min and > 285 µM.
With `CCOC(=O)CN(Cc1ccccc1)C(=O)CCCCCCCCCCCOC` [Example 22, N-(12-Methoxy-1-oxododecyl)-N-(phenylmethyl)-glycine, Ethyl ester], the half-maximal effective concentration (EC50) in the series with HIV-1 is > 245 µM.
The same measure, in the same setting: as for `CCOC(=O)[C@@H](NC(=O)CCCCCCCCCCCOC)[C@@H](C)CC` [Example 45, N-(12-Methoxy-1-oxododecyl)-L-isoleucine, Ethyl ester], the figure is < 2.7 µM.
With `COCCCCCCCCCCCC(=O)N[C@@H](Cc1ccccc1)C(=O)OC(C)(C)C` [Example 50, N-(12-Methoxy-1-oxododecyl)-L-phenylalanine, 1,1-Dimethylethyl ester], in the series on HIV-1, a half-maximal response (EC50) required 11.1 µM.

A word on the half-life: it is the time in which the quantity being followed falls by half. Broadly, the EC50 is the concentration that produces a half-maximal response.
